test system: HEK293 cells; assay: Preliminary screening as mRNA vectors, EGFP mRNA transfection of HEK293 cells; format: cell-based; conditions: EGFP mRNA 50 ng per well, 96-well plates; percentage of GFP fluorescent cells relative to total number of cells (Hoechst)
Summary of the method: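 Screening format: EGFP mRNA transfection (50 ng/well) into HEK293 in 10% FBS-supplemented DMEM. Percent green fluorescent cells, normalised to Hoechst nuclear count, gave the value; Lipofectamine2000 was the reference transfectant.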

In order of falling “Absolute mRNA transfection efficiency in HEK293 cells” value:
1. CCCCCCCCCCCCCCSc1nc(NCCCCCCC)nc(NCCCN(C)C)n1 [Compound D6S14N7]  90.8%
2. CCCCCCCCCCCCCCSc1nc(NCCCCCCCC)nc(NCCCN(C)C)n1 [Compound D6S14N8]  80.6%
3. CCCCCCCCCCCCCCSc1nc(NCCCCCC)nc(NCCCN(C)C)n1 [Compound D6S14N6]  59.9%
4. CCCCCCCCCCCCCCCCNc1nc(NCCCN(C)C)nc(SCCCCCCCCCC)n1 [Compound D6S10N16]  51.5%
5. CCCCCCCCCCCSc1nc(NCCCCCCCCC)nc(NCCCN(C)C)n1 [Compound D6S11N9]  45.1%
6. CCCCCCCCCCCNc1nc(NCCCN(C)C)nc(SCCCCCCCCCCC)n1 [Compound D6S11N11]  35.5%
7. CCCCCCCCCCCCCCCCCCNc1nc(NCCCN(C)C)nc(SCCCCCCCCCC)n1 [Compound D6S10N18]  31.8%
8. CCCCCCCCCCCCSc1nc(NCCCCCCCC)nc(NCCCN(C)C)n1 [Compound D6S12N8]  30.5%
9. CCCCCCCCCCCSc1nc(NCCCCCCC)nc(NCCCN(C)C)n1 [Compound D6S11N7]  29.1%
10. CCCCCCCCCCCCSc1nc(NCCCCCCCCC)nc(NCCCN(C)C)n1 [Compound D6S12N9]  24.0%
11. CCCCCCCCCCCSc1nc(NCCCCCCCC)nc(NCCCN(C)C)n1 [Compound D6S11N8]  16.8%
12. CCCCCCCCCCCCNc1nc(NCCCN(C)C)nc(SCCCCCCCCCCC)n1 [Compound D6S11N12]  15.9%
13. CCCCCCCCCCCCCCCCCCNc1nc(NCCCN(C)C)nc(SCCCCCCCCCCC)n1 [Compound D6S11N18]  14.6%
14. CCCCCCCCCCCCSc1nc(NCCCCCCCCCCC)nc(NCCCN(C)C)n1 [Compound D6S12N11]  14.0%
15. CCCCCCCCCCCCCCCNc1nc(NCCCN(C)C)nc(SCCCCCCCCCCC)n1 [Compound D6S11N15]  13.1%
16. CCCCCCCCCCCCSc1nc(NCCCCCCC)nc(NCCCN(C)C)n1 [Compound D6S12N7]  13.0%
17. CCCCCCCCCCCCNc1nc(NCCCN(C)C)nc(SCCCCCCCCCCCC)n1 [Compound D6S12N12]  10.4%
18. CCCCCCCCCCCCCNc1nc(NCCCN(C)C)nc(SCCCCCCCCCCC)n1 [Compound D6S11N13]  10.0%
19. CCCCCCCCCCCCCCCCNc1nc(NCCCN(C)C)nc(SCCCCCCCCCCC)n1 [Compound D6S11N16]  6.2%
20. CCCCCCCCCCCCCNc1nc(NCCCN(C)C)nc(SCCCCCCCCCCCC)n1 [Compound D6S12N13]  5.5%
21. CCCCCCCCCCCCCCCCNc1nc(NCCCN(C)C)nc(SCCCCCCCCCCCC)n1 [Compound D6S12N16]  1.9%
22. CCCCCCCCCCCSc1nc(NCCCCCC)nc(NCCCN(C)C)n1 [Compound D6S11N6]  1.7%
23. CCCCCCCCCCCCCCCCCCNc1nc(NCCCN(C)C)nc(SCCCCCCCCCCCC)n1 [Compound D6S12N18]  1.7%
24. CCCCCCCCCCCCCCCNc1nc(NCCCN(C)C)nc(SCCCCCCCCCCCC)n1 [Compound D6S12N15]  1.6%
25. CCCCCCCCCCCCSc1nc(NCCCCCC)nc(NCCCN(C)C)n1 [Compound D6S12N6]  1.1%
